Experimental data: patent US20040043380A1, “T cell line and use thereof” (priority 2000, published 2004)
Where two headings read alike, the source gives them in different places.

System: HIV-1 BaL strain
Assay: Anti-HIV-1 activity: alkaline phosphatase reporter in MOLT-4/CCR5/LTR-SEAP cells infected with HIV-1 BaL strain
Type: cell-based
Settings: for EC50: read-out: EC50 (activity of inhibiting viral growth by 50%); for EC90: read-out: EC90 (activity of inhibiting viral growth by 90%)
Experimental: The alkaline phosphatase activity was measured by using Great EscAPe SEAP Detection Kit manufactured by Clontech. Fifty microliters of a diluent was added to 15 μl of the culture supernatant and incubated at 65° C. for 30 minutes. The reaction solution was cooled to room temperature, and then 50 μl of the reaction solution was transferred to a white plate, and 50 μl of an assay buffer was added thereto and incubated at room temperature for 5 minutes. Fifty microliters of a luminescence substrate was added thereto, incubated at room temperature for 10 minutes, and measured for chemiluminescence by a luminometer.
A mixture of 2×10^4of MOLT-4/CCR5/LTR-SEAP cells, 1000 CCID50 (cell culture infective dose 50%) of the virus and a test compound (Table 1) at various concentrations was cultured at 37° C. in 5% CO2 gas for 5 days. A quarter of the culture was subcultured for 5 days. On the tenth day after the infection, the culture supernatant was recovered, and the alkaline phosphatase activity was measured. The anti-HIV-1 activity (the inhibition rate) of a test compound was calculated from the following formula:
Inhibition rate (%)=(1−(chemiluminescence^1/chemiluminescence^2))×100
Chemiluminescence^1=chemiluminescence with addition of a test compound (ii)−chemiluminescence without viral infection (iii).
Chemiluminescence^2=chemiluminescence without addition of a test compound (i)−chemiluminescence without viral infection (iii).

[1] = Human immunodeficiency virus 1, BAL
[2] = MOLT-4/CCR5/LTR-SEAP cells, 1000 CCID50 HIV-1 BaL strain, alkaline phosphatase activity in culture supernatant on tenth day after infection

In the case of `Cc1cn([C@H]2C=C[C@@H](CO)O2)c(=O)[nH]c1=O` [Compound 1, 2′,3′-didehydro-3′-deoxythymidine], the EC50 [1] is reported as 0.016 µM and the EC90 [1] is reported as 0.26 µM.

Work on `Cc1ccnc2c1NC(=O)c1cccnc1N2C1CC1` [Compound 2, 11-cyclopropyl-5,11-dihydro-4-methyl-6H-dipyrido[3,2-b:2′,3′-e] [1,4]diazepin-6-one] yielded an EC90 [1] of 0.35 µM and an EC50 (Human immunodeficiency virus 1, MOLT-4/CCR5/LTR-SEAP cells, 1000 CCID50 HIV-1 BaL strain, alkaline phosphatase activity in culture supernatant on tenth day after infection) of 0.04 µM.

In the case of `Cc1c(O)cccc1C(=O)N[C@@H](CSc1ccccc1)[C@H](O)CN1C[C@H]2CCCC[C@H]2C[C@H]1C(=O)NC(C)(C)C` [Compound 3, (-)-(3S,4aS,8aS)-N-tert-butyl-2-[(2R,3R)-2-hydroxy-3-(3-hydroxy-2-methylbenzoylamino)-4-(phenylthio)butyl]decahydroisoquinoline-3-carboxamide monomethanesulfonate], the EC50 [1] is reported as 0.00067 µM and the EC90 [1] is reported as 0.17 µM.

Compound `Cc1ccc(-c2ccc3c(c2)C=C(C(=O)Nc2ccc(C[N+](C)(C)C4CCOCC4)cc2)CCC3)cc1` [Compound 4, N,N-dimethyl-N-(4-(((2-(4-methylphenyl)-6,7-dihydro-5H-benzocyclohepten-8-yl)carbonyl)-N-(4-tetrahydropyranyl)ammonium chloride] has an EC50 [2] of 0.021 µM and an EC90 [2] of 0.68 µM.
